Test results: article PMC5116089, “Sulfheme formation during homocysteine S-oxygenation by catalase in cancers and neurodegenerative diseases” (Nature Communications, 2016)
Read-outs that look alike come from different tables or passages of the source.

Tests used:
Bovine liver catalase [1] = target: T1, Bovine liver catalase (Bos taurus, UniProt P00432); test: Catalase activity (H2O2 disappearance at 240 nm) as a function of thiol concentration; assay type: biochemical; details: read-out: relative IC50 (CAT activity)
T1 construct: Bovine liver catalase was also purchased from Sigma-Aldrich; purchased Sigma-Aldrich; host or cells: bovine liver
T1 sequence (P00432 2-527 limits assumed): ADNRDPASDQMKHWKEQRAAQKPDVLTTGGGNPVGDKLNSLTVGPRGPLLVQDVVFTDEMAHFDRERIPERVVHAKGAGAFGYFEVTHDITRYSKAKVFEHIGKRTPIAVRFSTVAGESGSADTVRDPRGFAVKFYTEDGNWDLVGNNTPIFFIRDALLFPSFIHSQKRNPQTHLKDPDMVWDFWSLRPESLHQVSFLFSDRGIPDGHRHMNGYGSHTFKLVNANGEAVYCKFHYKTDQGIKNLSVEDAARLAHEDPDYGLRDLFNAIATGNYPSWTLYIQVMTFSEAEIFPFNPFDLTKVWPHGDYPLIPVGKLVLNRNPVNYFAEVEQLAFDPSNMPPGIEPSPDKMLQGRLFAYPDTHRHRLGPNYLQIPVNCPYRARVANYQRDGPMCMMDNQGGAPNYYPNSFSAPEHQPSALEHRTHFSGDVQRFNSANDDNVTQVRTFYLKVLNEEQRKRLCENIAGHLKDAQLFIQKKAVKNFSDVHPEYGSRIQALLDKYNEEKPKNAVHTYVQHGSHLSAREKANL
Description: (§1) CAT activity was measured on an Uvikon 941 spectrophotometer equipped with a temperature controlled water bath (±1 °C) by following the disappearance of H2O2 at 240 nm over 30–120 s at 25 °C. Catalase activity was calculated based on the rate of decomposition of hydrogen peroxide, which is proportional to the reduction of the absorbance at 240 nm. Experiments were carried out in a 3 ml quartz cuvette containing 11.7 mM H2O2 in 50 mM KPi, pH 7.4±1 mM DTPA and the reaction was initiated by adding 0.3–0.6 pmoles of CAT. The effect of biological thiols on the activity of CAT under physiological conditions was determined from a solution of CAT (30–60 nM) preincubated at 25 °C for at least 120 min as a function thiol concentration (0–40 mM for HCys and Cys, 0–100 mM for GSH) in 50 mM KPi, pH 7.4, 1 mM DTPA. Control experiments (biological thiols alone) were also performed in parallel. In each case, 10 μl of the reaction mixture (biological thiols±CAT) was added to the cuvette containing the H2O2 solution to initiate the reaction. Similarly, the effect of biological thiols on the activity of CAT under pathological conditions was determined from a solution of CAT (30–60 nM) containing a 2.124±0.386 molar excess of iron that was preincubated with various concentrations of thiols (0–1 mM) for at least 120 min at 25 °C in 50 mM KP at pH 7.4. The relative half inhibitory concentration (IC50) values were obtained by plotting the relative activity of CAT (A, in per cent) as a function of the concentration of thiol-compounds (RSH) and by fitting the data with the following four parameter logistic equation: A=Amin+(Amax−Amin)/(1+([RSH]/IC50)^n), where Amax is the maximal activity of CAT (constrained at 100%), Amin is the minimum activity achieved at saturating concentration of RSH and n is the Hillslope that characterizes the slope of the curve at its midpoint. The inactivation rate (kinact, min^−1) was extracted from the time course of the inactivation of CAT bioactivity using a fixed concentration of HCys. Accordingly, a solution of CAT (3.5–5 μM) was incubated with 2 mM L-HCys in 50 mM KPi, pH 7.4, 1 mM DTPA. Aliquots (10 μl) were taken at intervals (0–480 min), diluted 1:50 in 50 mM KPi, pH 7.4, 1 mM DTPA and assayed for CAT activity as described above. Similar experiments were performed in the presence of DMPO, 5,5-dimethyl-1,3-cyclohexanedione (dimedone) or SOD at a final concentration of 100 mM, 4 mM or 40 U, respectively. kinact values were obtained by plotting the relative activity of CAT (A, in per cent) as a function of the incubation time and the data were fitted with an exponential decay function: A=A0+ΔA × e^−kinact × t, with A0 and ΔA (A0+ΔA=100%) the residual activity and the percentage of CAT inhibition when t→∞, respectively. The effect of NaSH on the consumption of H2O2 in cell lysates was determined from a solution of cell lysates (0.5–3 mg ml^−1) incubated on ice with various concentrations of NaSH (0–200 μM). The disappearance of H2O2 was then followed at 240 nm for 2–5 min at 25 °C after the addition of 20–25 μl of the reaction mixture in a 3 ml cuvette containing 11.7 mM H2O2 in 50 mM KPi, pH 7.4. The relative half inhibitory concentration (IC50) values for NaSH were obtained by plotting the relative rate of disappearance of H2O2 (ΔA240 nm/min) as a function of the concentration of NaSH and by fitting the data with an hyperbolic decay equation. All the experiments were performed at least in triplicate.

Bovine liver catalase [2] = target: T1, Bovine liver catalase; test: Comparative kinetic studies by ultraviolet-visible spectroscopy (compound II and Fe(II) sulfonium formation); assay type: biochemical; details: CAT + 2 mM HCys, 1 mM DTPA, pH 7.4, with the additive named (dimedone 4 mM, BCN 0.1 mM, SOD 40 U)
Description: Ultraviolet–visible spectra were recorded on a Cary 300 Scan or an Uvikon 941 spectrophotometer equipped with a temperature equilibrating water bath (±1 °C). Spectral changes over time were recorded when CAT was incubated with L-HCys (0.2 or 2 mM), L-Cys (0.2, 2 or 9 mM) or GSH (1 or 30 mM) at 25 °C in a 1 ml quartz cuvette containing a solution of CAT (2.7–5.9 μM) in 50 mM KPi, pH 7.4±1 mM DTPA. Due to half-site reactivity of biological thiols with CAT, the data were recorded versus a blank containing half the concentrations of CAT used in the experiments, that is, a solution of 1.35–2.95 μM CAT in 50 mM KPi at pH 7.4±1 mM DTPA. Reactions were initiated by addition of the thiol-containing compounds. Comparative kinetic studies were performed by incubating CAT ([…] in the experiment, 1.35–1.5 μM in the blank) with 2 mM L-HCys in 50 mM KPi, pH 7.4, 1 mM DTPA with or without […], 5,5-dimethyl-1,3-cyclohexanedione (dimedone, 4 mM), BCN (0.1 mM) or SOD, 40 U). All the experiments were performed at least in duplicate.

MDST8 cells = test: H2O2 consumption in cell lysates as a function of NaSH concentration; assay type: biochemical, human; details: MDST8 cell lysate; read-out: relative IC50 (rate of H2O2 consumption)
Description: as §1, with “Similar experiments were performed in the presence of DMPO, 5,5-dimethyl-1,3-cyclohexanedione (dimedone) or SOD at a final concentration of 100 mM, 4 mM or 40 U, respectively. kinact values were obtained by plotting the relative activity of CAT (A, in per cent) as a function of the incubation time and the data were fitted with an exponential decay function: A=A0+ΔA × e^−kinact × t, with A0 and ΔA (A0+ΔA=100%) the residual activity and the percentage of CAT inhibition when t→∞, respectively.” left out, “The disappearance of H2O2 was then followed at 240 nm for 2–5 min at 25 °C after the addition of 20–25 μl of the reaction mixture in a 3 ml cuvette containing 11.7 mM H2O2 in 50 mM KPi, pH 7.4. The relative half inhibitory concentration (IC50) values for NaSH were obtained by plotting the relative rate of disappearance of H2O2 (ΔA240 nm/min) as a function of the concentration of NaSH and by fitting the data with an hyperbolic decay equation. All the experiments were performed at least in triplicate.” left out

HT-29 Glc−/+ cells = test: as above; assay type: biochemical, human; details: HT-29 Glc−/+ cell lysate (control line); read-out: relative IC50 (rate of H2O2 consumption)
Description: as §1, with “Similar experiments were performed in the presence of DMPO, 5,5-dimethyl-1,3-cyclohexanedione (dimedone) or SOD at a final concentration of 100 mM, 4 mM or 40 U, respectively. kinact values were obtained by plotting the relative activity of CAT (A, in per cent) as a function of the incubation time and the data were fitted with an exponential decay function: A=A0+ΔA × e^−kinact × t, with A0 and ΔA (A0+ΔA=100%) the residual activity and the percentage of CAT inhibition when t→∞, respectively.” left out, “The disappearance of H2O2 was then followed at 240 nm for 2–5 min at 25 °C after the addition of 20–25 μl of the reaction mixture in a 3 ml cuvette containing 11.7 mM H2O2 in 50 mM KPi, pH 7.4. The relative half inhibitory concentration (IC50) values for NaSH were obtained by plotting the relative rate of disappearance of H2O2 (ΔA240 nm/min) as a function of the concentration of NaSH and by fitting the data with an hyperbolic decay equation. All the experiments were performed at least in triplicate.” left out

[3] = +1 mM DTPA (physiological conditions), 50 mM phosphate buffer pH 7.4, 25 °C, n=3±s.d.
[4] = iron 55–145 nM, −DTPA (pathological conditions), 50 mM phosphate buffer pH 7.4, 25 °C, n=3±s.d.

Row | SMILES | IC50 (Bovine liver catalase [1]; [3]) [µM] | IC50 (Bovine liver catalase [1]; iron 55–145 nM, + 0.2 mM DTPA) [µM] | IC50 (Bovine liver catalase [1]; iron 55–145 nM, + 1 mM DTPA) [µM] | IC50 (Bovine liver catalase [1]; iron 55–145 nM, + DMPO) [µM] | IC50 (Bovine liver catalase [1]; iron 55–145 nM, + SOD) [µM] | IC50 (Bovine liver catalase [1]; [4]) [µM] | Ultraviolet–visible spectroscopy kobs(6) (CAT–Fe(IV)=O formation) (Bovine liver catalase [2]) [min⁻¹] | IC50 (MDST8 cells) [µM] | IC50 (HT-29 Glc−/+ cells) [µM]
1 | N[C@@H](CS)C(=O)O [Cys, cysteine] | 590 ± 70 | 69 ± 27 | 594 ± 67 | > 700 | 66 ± 16 | 3.5 ± 0.3 | – | – | –
2 | N[C@@H](CCC(=O)N[C@@H](CS)C(=O)NCC(=O)O)C(=O)O [GSH, glutathione] | 21200 ± 8500 | – | – | – | – | 55 ± 14 | – | – | –
3 | NC(CCS)C(=O)O (stereo not shown) [HCys, homocysteine] | 1440 ± 370 | – | – | – | – | 37 ± 3 | 0.026 ± 0.003 | – | –
4 | [Na+].[SH-] [NaSH] | – | – | – | – | – | – | – | 20.4 ± 4 | 15 ± 5.3
